Earlier results, collected in patent publication US12065428B2, “Anti-viral compounds” (Aligos Therapeutics, Inc., priority 2021, dated 2024).

What was measured:
SARS-CoV-2 = settings: cited from earlier work
3CLpro = 3CLpro (Severe acute respiratory syndrome coronavirus 2, UniProt P0DTD1); settings: cited from earlier work

In the case of `CN1CCN(C(=O)N[C@@H](Cc2ccccc2)C(=O)N[C@H](/C=C/S(=O)(=O)c2ccccc2)CCc2ccccc2)CC1` [Example K117777], the “antiviral effect when TMPRSS2 was expressed” value (SARS-CoV-2; A549-ACE2 expressing TMPRSS2 (Steuten et al.)) is given as “abolished”, the “inhibition of SARS-CoV-2” value (SARS-CoV-2; VeroE6, A549-ACE2 and/or HeLa-ACE2 (Mellott et al.)) is given as “potent inhibition” and the “inhibitory effect on the 3CLpro” value (3CLpro) is given as “lacks an inhibitory effect”.
